Assays:
human TPIIle170Thr = biological target: T1, human TPIIle170Thr (Homo sapiens, UniProt P60174, I171T); assay: enzyme-coupled activity assay with PEP titration; thermal shift ΔTm […]°C; type: biochemical
T1 construct: gene TPI1; 6x-histidine tagged human TPI

[1] = biological target: T2, triosephosphate isomerase (TPI) (Oryctolagus cuniculus, UniProt P00939); assay: co-crystal structure at […] Å; type: binding
T2 construct: gene TPI1; Native rabbit muscle TPI (Sigma); homodimer, 246 of 250 amino acids modelled

human TPIIle170Val = biological target: T3, human TPIIle170Val (Homo sapiens, UniProt P60174, I171V); assay: enzyme-coupled activity assay with PEP titration; thermal shift ΔTm […]°C; type: biochemical
T3 construct: gene TPI1; 6x-histidine tagged human TPI

[2] = biological target: T4, human triosephosphate isomerase (TPI) (Homo sapiens, UniProt P60174); assay: enzyme-coupled activity assay with PEP titration (IC50 […]); thermal shift ΔTm […]°C; type: biochemical
T4 construct: gene TPI1; 6x-histidine tagged wild-type human TPI
T4 sequence (P60174 2-249): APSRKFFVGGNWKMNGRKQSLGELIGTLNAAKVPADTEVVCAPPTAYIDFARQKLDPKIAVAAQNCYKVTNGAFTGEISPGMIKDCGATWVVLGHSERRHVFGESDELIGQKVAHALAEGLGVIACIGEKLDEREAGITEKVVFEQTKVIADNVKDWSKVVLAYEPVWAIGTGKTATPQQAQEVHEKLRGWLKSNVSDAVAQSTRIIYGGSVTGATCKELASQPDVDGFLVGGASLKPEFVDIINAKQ

T2 sequence (P00939 2-249): as the sequence (P60174 2-249) above, with Q19K, S20N, G26T, A118S counted along it
T1 sequence (P60174 2-249 I171T): as the sequence (P60174 2-249) above, with I170T counted along it
T3 sequence (P60174 2-249 I171V): as the sequence (P60174 2-249) above, with I170V counted along it

IC50 (human TPIIle170Thr): 1.54 mM
IC50 (human TPIIle170Val): 1.93 mM
Ki [2]: 0.23 mM
Compound: C=C(OP(=O)(O)O)C(=O)O [PEP, phosphoenolpyruvate]
co-crystal structure at 1.55 Å [1]: The electron density map gave a clearly defined and unambiguous shape for PEP bound to the active sites

From PMC3971408, “Inhibition of triosephosphate isomerase by phosphoenolpyruvate in the feedback-regulation of glycolysis” (Open Biology, 2014)
